{
  "source": "patent US8338517B2",
  "about": "“Aqueous compositions of fluorinated surfactants and methods of using the same” (3M Innovative Properties Company, priority 2007, dated 2012)",
  "experiment": "Static surface tension of aqueous surfactant solutions (Kruss K-12 tensiometer, Du Nouy ring method)",
  "type": "physicochemical",
  "conditions": "1000 ppm in water, 20° C.",
  "experimental": "The solution from was diluted with water to a concentration of 1000 ppm.\nThe procedure of Preparation 1 was followed except using 16.3 grams of C3F7OCHFCF2COOCH3 instead of the CF3O(CF2)3OCHFCF2COOCH3 to prepare a solution of C3F7OCHFCF2COOK. This solution was diluted with water to a concentration of 1000 ppm.\nStatic surface tensions were measured on the solutions of Preparations 1 to 6 using a Kruss K-12 tensiometer (obtained from Kruss GmbH, Hamburg, Germany) using the Du Nouy ring method at 20° C.",
  "data": [
    {"compound": "O=C([O-])C(F)(F)C(F)(F)C(F)(F)C(F)(F)C(F)(F)F.[K+]", "note": "[potassium perfluorohexanoate]", "values": [
      {"measurement": "Surface Tension", "result": 58.5, "unit": "mN/m"}
    ]}
  ]
}
